The text below walks through data of PubChem BioAssay (NCI).

Some test systems named below: 786-0 renal; CCRF-CEM leukemia; HCC-2998 colon; HCT-15 colon; HL-60(TB) leukemia; HT29 colon; LOX IMVI melanoma; NCI-H226 lung; NCI-H522 lung; OVCAR-3 ovarian; OVCAR-5 ovarian; SK-MEL-2 melanoma; SK-MEL-28 melanoma; SN12C renal; SNB-75 CNS; SR leukemia; SW-620 colon; U251 CNS; UACC-62 melanoma.
Holding throughout (assay): NCI anticancer screen, dose series, 48 h

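How tested: cells in 96-well plates exposed to compound for 48 hours at five concentrations. TGI: concentration producing complete growth inhibition.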

On to `Cc1nc(Nc2ccccc2)sc1C(=O)NNc1ccc([N+](=O)[O-])cc1[N+](=O)[O-]`, for which the TGI in the assay with 786-0 renal is greater than 100 µM; in the assay with CCRF-CEM leukemia it was 58.2 µM; in the assay with HCC-2998 colon it was greater than 100 µM; with HCT-15 colon, greater than 100 µM; in the assay with HL-60(TB) leukemia, 41.2 µM; in the assay on HT29 colon it was greater than 100 µM. Moreover, the TGI in the assay with LOX IMVI melanoma is 87.9 µM; in the assay with NCI-H226 lung it was greater than 100 µM; with NCI-H522 lung, 49.3 µM; with OVCAR-3 ovarian, greater than 100 µM; with OVCAR-5 ovarian, greater than 100 µM; with SK-MEL-2 melanoma, greater than 100 µM. For the same compound, the TGI is greater than 100 µM in the assay on SK-MEL-28 melanoma; greater than 100 µM in the assay on SN12C renal; 95.3 µM in the assay on SNB-75 CNS; 65.7 µM in the assay with SR leukemia; greater than 100 µM with SW-620 colon; greater than 100 µM in the assay on U251 CNS. This compound displayed a TGI in the assay with UACC-62 melanoma greater than 100 µM.
Take `COc1ccc(NC(=O)CC(=O)N/N=C/c2ccc(N(CCC#N)S(=O)(=O)c3ccccc3)cc2)cc1`: the TGI in the assay on 786-0 renal, with CCRF-CEM leukemia, in the assay with HCC-2998 colon, in the assay on HCT-15 colon, in the assay on HL-60(TB) leukemia and in the assay on HT29 colon was greater than 100 µM throughout. The TGI in the assay with LOX IMVI melanoma, with NCI-H226 lung, in the assay on NCI-H522 lung, with OVCAR-3 ovarian, with OVCAR-5 ovarian and with SK-MEL-2 melanoma was greater than 100 µM in each case. In addition, the TGI with SK-MEL-28 melanoma, with SR leukemia, with SW-620 colon, in the assay on U251 CNS and in the assay on UACC-62 melanoma was greater than 100 µM each time.
`C/C(CC(=O)NC1=CC=C(NC(=O)C/C(C)=N\Nc2ccccc2)CC1)=N/Nc1ccccc1`: the TGI in the assay on 786-0 renal, in the assay on CCRF-CEM leukemia, in the assay with HCC-2998 colon, with HCT-15 colon, in the assay with HL-60(TB) leukemia and with HT29 colon was greater than 100 µM in each case. Moreover, the TGI in the assay with LOX IMVI melanoma, in the assay with NCI-H226 lung, in the assay with NCI-H522 lung, in the assay with OVCAR-3 ovarian, in the assay on OVCAR-5 ovarian and in the assay with SK-MEL-2 melanoma was greater than 100 µM each time. Also, the TGI in the assay on SK-MEL-28 melanoma, with SN12C renal, in the assay on SNB-75 CNS, in the assay on SR leukemia, with U251 CNS and in the assay with UACC-62 melanoma was greater than 100 µM throughout.
With `CCc1cccc(CC)c1NC(=O)C1=C(C)NC(C)=C(C(=O)Nc2c(CC)cccc2CC)C1c1ccc2c(c1)OCO2`, the TGI in the assay on 786-0 renal was found to be 29.9 µM; with CCRF-CEM leukemia, 20.3 µM; in the assay with HCC-2998 colon, 36.7 µM; with HCT-15 colon, 26.8 µM; in the assay on HL-60(TB) leukemia, 26.4 µM; in the assay on HT29 colon, 30.4 µM. For the same compound, the TGI in the assay with LOX IMVI melanoma worked out at 26 µM; in the assay on NCI-H226 lung it was 28.6 µM; in the assay on NCI-H522 lung, 27.2 µM; in the assay with OVCAR-3 ovarian, 27.2 µM; in the assay on OVCAR-5 ovarian it was 31.7 µM; in the assay on SK-MEL-2 melanoma it was 33.7 µM. Further, the TGI in the assay on SK-MEL-28 melanoma is 35 µM; in the assay with SN12C renal, 28.7 µM; with SNB-75 CNS, 38.1 µM; with SR leukemia it was 65 µM; with SW-620 colon, 31.5 µM; in the assay on U251 CNS, 27.4 µM. In the assay on UACC-62 melanoma, this compound registered a TGI of 25.6 µM.
As to `CC1(C)CC(=O)c2c(nc(SSc3nc4c(c(-c5ccc(Br)cc5)c3C#N)C(=O)CC(C)(C)C4)c(C#N)c2-c2ccc(Br)cc2)C1`, the TGI with 786-0 renal, in the assay with CCRF-CEM leukemia, in the assay with HCC-2998 colon, in the assay with HCT-15 colon, in the assay on HL-60(TB) leukemia and with HT29 colon was greater than 10 µM in each case. Further, the TGI in the assay on LOX IMVI melanoma, in the assay on NCI-H226 lung, in the assay on NCI-H522 lung, in the assay on OVCAR-3 ovarian, in the assay with OVCAR-5 ovarian and in the assay on SK-MEL-2 melanoma was greater than 10 µM in each case. The TGI in the assay on SK-MEL-28 melanoma, in the assay on SN12C renal, in the assay on SNB-75 CNS, with SR leukemia, in the assay with SW-620 colon and with U251 CNS was greater than 10 µM each time.
On to `Cn1nc2ccc3nccc(N(CCO)CCO)c3c2n1`, for which the TGI with 786-0 renal, in the assay on CCRF-CEM leukemia, in the assay on HCC-2998 colon, with HCT-15 colon, with HL-60(TB) leukemia and with HT29 colon was greater than 100 µM each time. For the same compound, the TGI in the assay on LOX IMVI melanoma, in the assay with NCI-H226 lung, in the assay with NCI-H522 lung, in the assay with OVCAR-3 ovarian, in the assay on OVCAR-5 ovarian and with SK-MEL-2 melanoma was greater than 100 µM throughout. For the same compound, the TGI in the assay with SK-MEL-28 melanoma, with SN12C renal, in the assay with SNB-75 CNS, with SR leukemia, in the assay with SW-620 colon and with U251 CNS was greater than 100 µM in each case. This compound also came in with a TGI in the assay with UACC-62 melanoma greater than 100 µM.
In the case of `O=[N+]([O-])C(=C(Nc1ccccc1)Nc1ccccc1)/C(Cl)=C(\Cl)Br`, the TGI is 31.2 µM in the assay with 786-0 renal; 6.44 µM in the assay with CCRF-CEM leukemia; 35 µM in the assay with HCC-2998 colon; 24.2 µM in the assay on HCT-15 colon; 4.41 µM with HL-60(TB) leukemia; 29.7 µM with HT29 colon. Also, the TGI in the assay on LOX IMVI melanoma is 15.2 µM; with NCI-H226 lung, 14.4 µM; in the assay with NCI-H522 lung, 8.72 µM; in the assay on OVCAR-3 ovarian, 19.4 µM; with OVCAR-5 ovarian, 22.5 µM; with SK-MEL-2 melanoma it was 38.3 µM. The TGI in the assay with SK-MEL-28 melanoma amounted to 29.9 µM; in the assay with SN12C renal it was 26.6 µM; in the assay with SNB-75 CNS it was 28.4 µM; in the assay with SR leukemia it was 22.6 µM; with SW-620 colon, 18.8 µM; in the assay on U251 CNS it was 28.2 µM.
As for `CCOC(=O)c1[nH]c(CN(C)Cc2[nH]c(C(=O)OCC)c(C)c2C(=O)OCc2ccccc2)c(C(=O)OCc2ccccc2)c1C`, the TGI in the assay on 786-0 renal is 36.2 µM; in the assay with CCRF-CEM leukemia it was greater than 100 µM; in the assay with HCC-2998 colon, greater than 100 µM; in the assay on HCT-15 colon, greater than 100 µM; in the assay with HL-60(TB) leukemia, greater than 100 µM; in the assay with HT29 colon, 8.01 µM. The TGI in the assay on LOX IMVI melanoma is greater than 100 µM; in the assay on NCI-H226 lung, 32.7 µM; with NCI-H522 lung, 36.7 µM; in the assay on OVCAR-3 ovarian, 28.3 µM; with OVCAR-5 ovarian, 44.8 µM; in the assay on SK-MEL-28 melanoma, greater than 100 µM. Moreover, the TGI in the assay with SN12C renal is 34.5 µM; in the assay on SNB-75 CNS it was 19.3 µM; with SR leukemia, greater than 100 µM; in the assay on SW-620 colon, greater than 100 µM; in the assay with U251 CNS it was 34 µM; with UACC-62 melanoma it was 85.3 µM.
With `CCCCCCCCCCCCn1[nH]c(C)c(C(=S)SCCCCCCCC)c1=O`, the TGI is greater than 100 µM with 786-0 renal; greater than 78.3 µM in the assay on CCRF-CEM leukemia; greater than 100 µM in the assay with HCC-2998 colon; greater than 100 µM in the assay with HCT-15 colon; greater than 75.7 µM in the assay with HL-60(TB) leukemia; greater than 100 µM in the assay with HT29 colon. Further, the TGI is greater than 100 µM in the assay with LOX IMVI melanoma; greater than 94.8 µM in the assay on NCI-H226 lung; greater than 100 µM in the assay with NCI-H522 lung; greater than 100 µM with OVCAR-3 ovarian; greater than 100 µM with OVCAR-5 ovarian; greater than 100 µM in the assay on SK-MEL-2 melanoma. For the same compound, the TGI in the assay on SK-MEL-28 melanoma was greater than 100 µM; in the assay on SN12C renal, greater than 100 µM; in the assay on SNB-75 CNS it was greater than 100 µM; in the assay with SR leukemia, greater than 39.9 µM; in the assay with SW-620 colon it was greater than 62 µM; with U251 CNS it was greater than 100 µM. Also, the TGI in the assay with UACC-62 melanoma is 64.6 µM.
For `CCCCCCCCCCCC(O)=C1C(=O)CC(O)CC1=O` (configuration not stated), the TGI with 786-0 renal is greater than 100 µM; with CCRF-CEM leukemia it was greater than 100 µM; in the assay with HCC-2998 colon, greater than 100 µM; in the assay on HL-60(TB) leukemia, 58.7 µM; in the assay with HT29 colon, greater than 100 µM; in the assay with LOX IMVI melanoma, greater than 100 µM. Besides, the TGI with NCI-H226 lung, in the assay on NCI-H522 lung, with OVCAR-3 ovarian, with OVCAR-5 ovarian, in the assay with SK-MEL-2 melanoma and in the assay with SK-MEL-28 melanoma was greater than 100 µM each time. For the same compound, the TGI in the assay on SN12C renal, in the assay on SNB-75 CNS, in the assay with SR leukemia, in the assay with SW-620 colon, in the assay with U251 CNS and with UACC-62 melanoma was greater than 100 µM throughout.
With `CCCCNC(=O)CCN(C(=O)O)S(=O)(=O)c1ccc(NC(=O)c2ccccc2)cc1`, the TGI with 786-0 renal is 29.7 µM; in the assay with CCRF-CEM leukemia it was greater than 100 µM; with HCC-2998 colon, greater than 100 µM; in the assay with HCT-15 colon, greater than 100 µM; in the assay on HL-60(TB) leukemia it was greater than 100 µM; with HT29 colon, 49.8 µM. For the same compound, the TGI with LOX IMVI melanoma was 34.6 µM; with NCI-H226 lung, greater than 100 µM; in the assay on NCI-H522 lung, greater than 100 µM; in the assay with OVCAR-3 ovarian it was greater than 100 µM; with OVCAR-5 ovarian, greater than 100 µM; in the assay with SK-MEL-2 melanoma, greater than 100 µM. Also, the TGI in the assay on SK-MEL-28 melanoma was greater than 100 µM; in the assay with SN12C renal, greater than 100 µM; with SNB-75 CNS it was greater than 100 µM; in the assay on SR leukemia it was greater than 100 µM; in the assay on SW-620 colon, 29.2 µM; with U251 CNS it was greater than 100 µM. In addition, the TGI in the assay with UACC-62 melanoma was greater than 100 µM.
